From the supplement of paper PMC10331698
± gives the standard deviation of the averaged measurements.

Assays:
Test in all cases: level (log10 ratio to DMSO vehicle control); higher = higher biomarker level / cell amount than vehicle control
Details in all cases: in DMSO
[1] = compound: FC(F)(F)COC(OCC(F)(F)F)OCC(F)(F)F [tris(Trifluoroethoxy)methane]
Method: (§1)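 BioMAP Diversity Plus panel of 12 human primary cell co-culture systems (3C, 4H, LPS, SAg, BT, BF4T, BE3C, CASM3C, HDF3CGF, KF3CT, MyoF, Mphg). Compounds were added 1 h before stimulation and left for 24 h (MyoF 48 h; BT 72 h for soluble read-outs or 6 d for IgG). Biomarkers were read by ELISA, cytotoxicity by SRB, PBMC viability and proliferation by Alamar Blue. Each well value was divided by the mean of 8 DMSO control wells on the same plate and log10 transformed; duplicate blinded samples were tested at 4 concentrations.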

[2] = compound: FC(F)(F)C(F)(F)C(F)(F)C(F)(F)CCI [1H,1H,2H,2H-Perfluorohexyl iodide]
Method: as §1

[3] = compound: O=C(O)C(F)(F)C(F)(F)C(F)(F)C(F)(F)C(F)(F)C(F)(F)C(F)(F)F [Ammonium perfluorooctanoate]
Method: as §1

[4] = compound: Cc1ccc(S(=O)(=O)OCC(F)(F)C(F)(F)C(F)(F)C(F)(F)C(F)(F)C(F)F)cc1 [1H,1H,7H-Perfluoroheptyl 4-methylbenzenesulfonate]
Method: as §1

[5] = compound: C=C(C)C(=O)OCC(F)(F)C(F)(F)C(F)(F)F [2,2,3,3,4,4,4-Heptafluorobutyl methacrylate]
Method: as §1

[6] = compound: O=S(=O)(OCC(F)(F)F)C(F)(F)C(F)(F)C(F)(F)C(F)(F)F [2,2,2-Trifluoroethyl perfluorobutanesulfonate]
Method: as §1

Perfluoropinacol = compound: OC(C(F)(F)F)(C(F)(F)F)C(O)(C(F)(F)F)C(F)(F)F [Perfluoropinacol]
Method: as §1

Test System | level (log10) ([1]; 6700 nM) | level (log10) ([1]; 20000 nM) | level (log10) ([1]; 60000 nM) | level (log10) ([2]; 6700 nM) | level (log10) ([2]; 20000 nM) | level (log10) ([2]; 60000 nM) | level (log10) ([3]; 6700 nM) | level (log10) ([3]; 20000 nM) | level (log10) ([3]; 60000 nM) | level (log10) ([4]; 6700 nM) | level (log10) ([4]; 20000 nM) | level (log10) ([4]; 60000 nM) | level (log10) ([5]; 6700 nM) | level (log10) ([5]; 20000 nM) | level (log10) ([5]; 60000 nM) | level (log10) ([6]; 6700 nM) | level (log10) ([6]; 20000 nM) | level (log10) ([6]; 60000 nM) | level (log10) (Perfluoropinacol; 6700 nM) | level (log10) (Perfluoropinacol; 20000 nM)
SAg:PBMC Cytotoxicity | -0.0115 ± 0.0078 | 0.01 ± 0.017 | 0.0135 ± 0.022 | 0.006 ± 0.03 | -0.0025 ± 0.03 | -0.093 ± 0.088 | 0.011 ± 0.035 | 0.049 ± 0.011 | 0.052 ± 0.04 | 0.0275 ± 0.0092 | 0.0285 ± 0.0092 | 0.017 ± 0.02 | -0.0105 ± 0.037 | 0.015 ± 0.011 | 0.0075 ± 0.044 | 0.0065 ± 0.011 | -0.013 | 0.012 ± 0.0057 | 0.046 ± 0.033 | 0.0855 ± 0.0021
3C:SRB | -0.02 | -0.0035 ± 0.00071 | -0.006 ± 0.02 | 0.0005 ± 0.018 | 0.004 ± 0.013 | -0.006 ± 0.0028 | -0.0015 ± 0.012 | -0.014 ± 0.0042 | -0.05 ± 0.0099 | 0.006 ± 0.0071 | -0.016 ± 0.013 | -0.125 ± 0.0042 | -0.0125 ± 0.0021 | -0.001 ± 0.0057 | 0.0035 ± 0.00071 | -0.0135 ± 0.0021 | -0.014 ± 0.0028 | -0.0295 ± 0.012 | -0.0665 ± 0.013 | -0.188 ± 0.0028
BF4T:CCL26/Eotaxin-3 | 0.0055 ± 0.025 | -0.011 ± 0.0014 | 0.012 ± 0.0057 | -0.032 ± 0.017 | -0.0525 ± 0.036 | -0.098 ± 0.073 | 0.004 ± 0.02 | -0.044 ± 0.025 | -0.086 | -0.0095 ± 0.046 | -0.077 ± 0.068 | -0.095 ± 0.018 | 0.032 ± 0.069 | 0.0385 ± 0.05 | 0.0235 ± 0.052 | -0.0015 ± 0.016 | -0.018 ± 0.0071 | -0.014 ± 0.037 | -0.108 ± 0.0042 | -0.217 ± 0.0057
LPS:CCL2/MCP-1 | 0.0085 ± 0.04 | 0.021 ± 0.042 | 0.036 ± 0.034 | -0.016 ± 0.0014 | 0.0055 ± 0.0078 | -0.013 ± 0.024 | -0.0095 ± 0.0035 | -0.001 ± 0.031 | 0.0105 ± 0.0092 | -0.013 ± 0.0057 | -0.01 ± 0.0071 | -0.004 ± 0.013 | 0.0125 ± 0.015 | -0.002 ± 0.0028 | 0.018 ± 0.02 | -0.0345 ± 0.012 | -0.0435 ± 0.022 | -0.101 ± 0.067 | 0.0205 ± 0.00071 | -0.103 ± 0.0078
SAg:CD38 | -0.0135 ± 0.015 | -0.011 ± 0.0057 | -0.012 ± 0.02 | 0.009 ± 0.021 | -0.007 ± 0.0071 | -0.005 ± 0.031 | -0.011 ± 0.018 | -0.0055 ± 0.0064 | -0.051 ± 0.017 | 0.005 ± 0.0057 | -0.0075 ± 0.012 | -0.0075 ± 0.012 | -0.0015 ± 0.03 | 0.007 ± 0.048 | 0.013 ± 0.068 | -0.0185 ± 0.0092 | -0.012 ± 0.0071 | -0.0475 ± 0.032 | -0.012 ± 0.021 | -0.113 ± 0.023
4H:VEGFR2 | -0.0045 ± 0.023 | 0.006 ± 0.017 | 0.006 ± 0.021 | -0.029 ± 0.065 | -0.058 | -0.0605 ± 0.043 | -0.0055 ± 0.0035 | -0.009 ± 0.0014 | -0.0455 ± 0.098 | 0.005 ± 0.018 | 0.017 ± 0.011 | 0.01 | -0.0065 ± 0.03 | 0.01 | 0.0085 ± 0.0021 | -0.0285 ± 0.03 | 0.0005 ± 0.019 | 0.025 ± 0.0014 | -0.02 ± 0.023 | -0.138 ± 0.064
BE3C:CXCL9/MIG | 0.001 ± 0.0071 | 0.0025 ± 0.023 | -0.0045 ± 0.018 | 0.006 ± 0.0085 | 0.002 ± 0.016 | 0.0165 ± 0.028 | 0.008 ± 0.011 | -0.003 ± 0.0042 | -0.003 ± 0.0028 | 0.005 ± 0.016 | -0.001 ± 0.0028 | 0.0005 ± 0.021 | 0.003 ± 0.0085 | 0.0025 ± 0.0035 | 0.01 ± 0.0071 | 0.031 ± 0.0085 | 0.0065 ± 0.0078 | 0.0135 ± 0.0021 | -0.0045 ± 0.015 | 0.002 ± 0.0071
SAg:CXCL8/IL-8 | 0.002 ± 0.023 | 0.0085 ± 0.0021 | 0.0135 ± 0.00071 | 0.012 ± 0.0042 | -0.0035 ± 0.0092 | -0.006 ± 0.058 | -0.0325 ± 0.026 | 0.007 ± 0.013 | 0.127 ± 0.16 | 0.005 ± 0.0014 | 0.0025 ± 0.0064 | 0.0265 ± 0.033 | -0.003 ± 0.061 | -0.002 ± 0.075 | 0.006 ± 0.02 | 0.0205 ± 0.029 | 0.034 ± 0.024 | 0.134 ± 0.086 | 0.0725 ± 0.029 | -0.139 ± 0.041
